According to US12686668B2, “Leukotriene synthesis inhibitors” (Naegis Pharmaceuticals Inc., priority 2019, dated 2026):

How the values were obtained:
[1] = system: endogenous leukotriene production; details: estimated; cited from earlier work
[2] = system: LTC4 production in MC/9 cells; test: MC/9 HPLC assay, inhibition of LTC4 production; format: cell-based; details: Mus musculus; for inhibition at 3 µM: MC9, 3 μM, A23187 stimulated; for inhibition at 1 µM: MC9, Table 2 column 3, no concentration in head (1 μM according to b732), read-out: % Inhibition LTC4
How it was run: (§1)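 MC/9 cells (3×10^6 in HBSS) pre-incubated 30 min with compound, then stimulated 20 min at room temperature with 1 μM A23187. After methanol quench and C18 solid-phase extraction, LTB4 and LTC4 quantified by HPLC against reference standards; inhibition relative to control samples.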

[3] = system: LTB4 production in MC/9 cells; test: MC/9 HPLC assay, inhibition of LTB4 production; format: cell-based; details: Mus musculus, MC9, Table 2 column 4, no concentration in head (1 μM according to b732), read-out: % Inhibition LTB4
How it was run: as §1

[4] = system: LTB4 production in porcine or human whole blood; test: Whole blood HPLC assay, inhibition of LTB4 production; format: cell-based; details: 5 point curve, porcine or human whole blood (not specified)
How it was run: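 Porcine or human whole blood was pre-incubated 30 min with compound, then stimulated 20 min at room temperature with 20 μM A23187 (porcine blood also received 20 μM arachidonic acid). Plasma LTB4 was extracted on C18 and quantified by HPLC against reference standards. IC50 from a 5-point curve, with inhibition relative to controls.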

[5] = target: T1, recombinant human leukotriene A4 hydrolase enzyme (Homo sapiens, UniProt P09960); test: Amino-peptidase assay, alanine-4-nitroanalide; format: biochemical; details: negative values = augmented peptidase activity, read-out: % Inhibition aminopeptidase-Alanine-4-nitroanalide activity of LTA4H (3 μM)
T1 construct: purchased Cayman Chemical 10007817
T1 sequence (P09960 1-611): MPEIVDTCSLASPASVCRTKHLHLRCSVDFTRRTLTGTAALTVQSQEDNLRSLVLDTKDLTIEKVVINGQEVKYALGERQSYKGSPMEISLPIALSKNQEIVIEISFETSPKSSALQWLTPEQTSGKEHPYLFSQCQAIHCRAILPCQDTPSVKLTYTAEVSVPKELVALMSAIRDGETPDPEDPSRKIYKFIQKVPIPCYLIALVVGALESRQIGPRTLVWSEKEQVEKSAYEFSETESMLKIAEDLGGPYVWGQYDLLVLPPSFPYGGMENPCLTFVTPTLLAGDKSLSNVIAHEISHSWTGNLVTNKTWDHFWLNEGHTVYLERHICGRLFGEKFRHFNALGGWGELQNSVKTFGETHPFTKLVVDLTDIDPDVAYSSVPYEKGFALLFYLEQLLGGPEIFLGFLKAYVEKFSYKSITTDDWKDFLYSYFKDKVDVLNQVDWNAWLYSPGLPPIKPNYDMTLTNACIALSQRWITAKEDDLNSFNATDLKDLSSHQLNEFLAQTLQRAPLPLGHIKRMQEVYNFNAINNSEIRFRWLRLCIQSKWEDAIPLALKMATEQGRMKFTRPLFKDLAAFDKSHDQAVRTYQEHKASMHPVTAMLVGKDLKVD
How it was run: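 Compounds pre-incubated in the dark with recombinant human LTA4H (0.5 μg) in 50 mM Tris-HCl, 100 mM KCl; reaction started with alanine-4-nitroanilide (6 mM solution). Aminopeptidase rate followed as A405 from 4-nitroaniline, referenced to a standard; inhibition calculated versus controls, with negative values indicating augmented activity.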

AA-induced ear edema = test: Arachidonic acid (AA) induced mouse ear edema model; format: in vivo, CD-1 mice; details: topical 1 mg/ear, 4 hrs and 1 hr before AA 2 mg/ear, mice
Experimental: One group serves as a control and receives 20 μL of vehicle applied to the pinna of each ear (10 μL to the inside and 10 μL to the outside of the pinna). One or more additional groups serve as test groups. The test compound was applied to the pinna of one ear of the mouse in a 20 μL volume (10 μL to the inside and 10 μL to the outside of the pinna). Test compound or control vehicle (acetone/1% DMSO) was applied topically to the right ear 4 and 1 hour before the application of 2 mg/ear AA as a stimulus to both the inner and outer surfaces of CD-1 mice. The left ears received vehicle (acetone/1% DMSO) alone. The animal was lightly anesthetized again using isofluorane to enable application of the stimulus. For the control group, arachidonic acid (2 mg/ear) was applied as the stimulus to the pinna of one ear only, in a total volume of 20 μL of acetone (10 μL applied to the inside and 10 μL to the outside of the pinna). The other ear received 20 μL of acetone. This served to determine the increase in ear weight due to arachidonic acid in the absence of test compounds. For the test groups, arachidonic acid (2 mg/ear) was applied as the stimulus to the pinna of each ear, in a total volume of 20 μL of acetone (10 μL applied to the inside and 10 μL to the outside of the pinna). The animal was allowed to recover after application of the stimulus in each case. After 60 minutes the animal was euthanized and a standard biopsy sample was taken from each ear using a 6 mm skin biopsy punch (Acuderm). Ear edema was determined by the increase in weight of the tissue due to accumulation of fluid as a result of plasma extravasation. The ears were weighed separately using a balance suitable to record 0.1 mg. For the control group, the difference in ear weights was determined by subtracting the weight of the unstimulated ear from the stimulated ear, and this was a measure of the increase in ear weight due to edema. The percentage increase in ear weight was determined by dividing the increase in stimulated ear weight by the unstimulated ear weight and multiplying by 100. For the test groups, the difference in ear weights was determined by subtracting the weight of the untreated ear from the weight of the ear treated with test compound. The percent inhibition of the increase in ear weight for ears treated with the test compound was estimated by first subtracting the mean ear weight of the untreated controls from each tissue to determine the increase in tissue weight due to application of the arachidonic acid. The percent inhibition=1−(test drug stimulated ear (mg)/control stimulated ear (mg))×100. In Table 5, the data from inhibition of AA-induced ear edema in mice by topical application of compounds is provided. Compounds (0.3 or 1 mg/ear) were applied topically to the ear 4 hrs and 1 hr prior to application of arachidonic acid (AA; 2 mg/ear).

[6] = Solubilized concentration of compound in eye drop formulation (HPLC); format: physicochemical; details: eye drop formulation: 20% hydroxypropyl β-cyclodextrin, 0.5% HPMC, 1.6 mM EDTA in PBS
Experimental: (§2) Eye drops were prepared by adding compounds at a theoretical concentration of 10 mg/mL to a 2 mL microcentrifuge tube before adding a stir bar and the selected formulation that consisted of (w/v) hydroxypropyl β-cyclodextrin (Trappsol) (20%), hydroxyl propyl methylcellulose (0.5%) and EDTA (1.6 mM) in phosphate buffered saline. Tubes containing compound in eye drop formulation were heated to 60-65° C. and stirred at least 4 hours to overnight. The tubes were removed from the heat bath and centrifuged at 10,000 ref for 5 minutes to clear the solution of any residual drug not in solution. The supernatant was removed from the tubes and one 10 μL sample was removed for HPLC analysis of solubilized by HPLC using an ACE C18 column (4.5 mm×150 mm, 5 m), eluted with acetonitrile/methanol/water mixture with H3PO4, pH 3.5 (50:30:20) with a flow rate of 2.5 mL/min. The solubilized concentration of each compound was calculated by interpolation from a standard curve based on reference standards solubilized in methanol when the assay was validated.
In Table 6, the data from distribution studies performed in Lewis rats show the concentration of each compound present in the retina 0.5 hr after the administration of a 10 μL drop of each topical formation is provided. Compounds were paired and individual formulations mixed at a ratio to make a mixture that contained ~2.5 mg/mL of each compound.

[7] = Rat ocular distribution model, retina after topical drop; format: in vivo; details: Lewis rats, 10 μL topical drop
Experimental: as §2
Compounds were applied as a single 10 μL drop to rats and the aqueous humor, and the posterior segment of the eye (vitreous body and retina) were collected from each eye at the time point assigned after the eye was irrigated to remove any residual formulation present. Tissues were collected in pre-weighed collection tubes and the tissue weight was determined for each sample. An internal standard (IS) mixture containing a reference compound at a ratio of 1 μL to 4 mg tissue was added to samples, mixed and then diluted×4.25 in acetonitrile:methanol (9:1). Aqueous humour samples were vortex mixed for 10 s. The vitreous body & retina were vortex mixed 2 times each for 10 s, and further mixed for 6 min on a tabletop shaker at 750 rpm followed by final vortex mixing (10 s). All samples were centrifuged to pellet any particulate matter and the supernatant was transferred to LC vials. A 10 μL sample was then applied to the HPLC during LC/MS/MS analysis. A calibration curve for compounds (0.588-176.471 ng/mL) was prepared in rat plasma to estimate concentrations of compounds in each of the matrices analyzed using the area under curve (AUC) normalized to internal standard AUC for determining response. The assumption was made that 1 mg tissue is equivalent to 1 μL plasma. Concentrations measured in each tissue were then normalized to the amount of drug applied to account for differences in solubilized drug in each formulation. The average concentration and the standard deviation was determined based on “n”=number of eyes assessed, rather than the number of animals. […]

| SMILES | IC50 [4] [nM] | inhibition at 3 µM [5] [%] | Concentration of compound in formulation [6] [µg/mL] | Inhibition of endogenous leukotriene production [1] | inhibition at 3 µM [2] [%] | inhibition at 1 µM [2] [%] | inhibition at 1 µM [3] [%] | % Inhibition AA-Induced ear edema (1 mg/ear) (AA-induced ear edema) | Concentration of compound in retina 0.5 hr after administration per mg compound applied (Avg ± SD) n = 2 [7] |
| --- | --- | --- | --- | --- | --- | --- | --- | --- | --- |
| CC(c1cc2ccccc2s1)N(O)C(N)=O (stereo not drawn) [Zileuton] | – | – | – | 26-86% | – | – | – | – | – |
| CCC(CCc1ccc(Oc2nc3ccccc3s2)cc1)N1CCCC1 (stereo not drawn) [Compound 158, 2-{4-[3-(pyrrolidin-1-yl)pentyl]phenoxy}-1,3-benzothiazole] | 100 to 1000 | 50 to 75 | – | – | < 10 | 10 to 30 | > 90 | 10-30% | – |
| CCC(C)(O)CCc1ccc(Oc2nc3c(SC)cccc3s2)c(OC)c1 (stereo not drawn) [Compound 191, 1-(3-methoxy-4-{[4-(methylsulfanyl)-1,3-benzothiazol-2-yl]oxy}phenyl)pentan-3-methyl-3-ol] | – | – | 1650 | – | > 90 | – | – | – | 4872 ± 1672 ng/mL per mg compound applied |

Second part, led by results:

| IC50 [4] [nM] | inhibition at 3 µM [5] [%] | Concentration of compound in formulation [6] [µg/mL] | SMILES | Inhibition of endogenous leukotriene production [1] | inhibition at 3 µM [2] [%] | inhibition at 1 µM [2] [%] | inhibition at 1 µM [3] [%] | % Inhibition AA-Induced ear edema (1 mg/ear) (AA-induced ear edema) | Concentration of compound in retina 0.5 hr after administration per mg compound applied (Avg ± SD) n = 2 [7] |
| --- | --- | --- | --- | --- | --- | --- | --- | --- | --- |
| – | – | 2530 | CCC(O)CCc1ccc(Oc2nc3c(SC)cccc3s2)c(OC)c1 (stereo not drawn) [Compound 193, 1-(3-methoxy-4-{[4-(methylsulfanyl)-1,3-benzothiazol-2-yl]oxy}phenyl)pentan-3-ol] | – | 70 to 90 | > 90 | > 90 | – | 15690 ± 9863 ng/mL per mg compound applied |
| – | – | 3640 | CCC(O)(CCc1ccc(Oc2nc3c(SC)cccc3s2)cc1)C(F)(F)F (stereo not drawn) [Compound 195, 1-(4-{[4-(methylsulfanyl)-1,3-benzothiazol-2-yl]oxy}phenyl)-3-(trifluoromethyl)pentan-3-ol] | – | > 90 | – | – | – | 3343 ± 2.4 ng/mL per mg compound applied |
